Test results: ChEMBL document CHEMBL5726647, “Isoquinoline derivatives useful as inhibitors of diacylglyceride O-acyltransferase 2” (2017)

Target: T1, Diacylglycerol O-acyltransferase 2 (Homo sapiens, UniProt Q96PD7)
T1 sequence (Q96PD7 whole entry): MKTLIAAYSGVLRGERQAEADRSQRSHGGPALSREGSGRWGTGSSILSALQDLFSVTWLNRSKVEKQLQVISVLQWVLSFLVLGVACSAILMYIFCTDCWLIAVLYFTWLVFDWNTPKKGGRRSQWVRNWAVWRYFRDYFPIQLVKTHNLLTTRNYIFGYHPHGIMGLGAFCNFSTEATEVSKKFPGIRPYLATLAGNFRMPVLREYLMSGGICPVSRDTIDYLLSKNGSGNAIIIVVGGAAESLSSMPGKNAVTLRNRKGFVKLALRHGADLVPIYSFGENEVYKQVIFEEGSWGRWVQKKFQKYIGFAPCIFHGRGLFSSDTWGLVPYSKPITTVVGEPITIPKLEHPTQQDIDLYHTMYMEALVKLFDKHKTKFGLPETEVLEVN
Experiment: Enzymatic Activity Assay: DGAT2 activity was determined by measuring the amount of enzymatic product triolein (1,2,3-Tri(cis-9-octadecenoyl)glycerol) using the membrane prep mentioned above.The assay was carried out in deep well 384 plates in a final volume of 40 μL at room temperature. The assay mixture contained the following: assay buffer (100 mM Tris.Cl, pH 7.0, 20 mM MgCl2, 5% ethanol), 25 μM of diolein, 10 μM of oleoyl-CoA and 10 ng/μL of DGAT2 membrane.

IC50 [µM]	Compound
3.39	COc1cccc(-c2ccc(CNC(=O)c3ncc(Br)cn3)c3cnccc23)c1
1.96	COC(=O)c1cccc(-c2ccc(CNC(=O)Nc3cccc(Cl)c3Cl)c3cnccc23)c1
1.99	COc1cccc(-c2ccc(CNC(=O)Cc3ccccc3Cl)c3cnccc23)c1
4.2	COc1cccc(-c2ccc(CNC(=O)c3ccccc3CN3C=C(O)ON3)c3cnccc23)c1
7.13	COc1cccc(-c2ccc(CNC(=O)Cc3cncc(Br)c3)c3cnccc23)c1
9.02	COc1cccc(-c2ccc(CNC(=O)Nc3cccc(Cl)c3Cl)c3ncccc23)c1
7.61	CCOC(=O)CCc1ccc(CNC(=O)Nc2cccc(Cl)c2Cl)c2cnccc12
